Values of other authors, collected in US10285987B2, “Device and kit for dosing and dispensing non-liquid medicine” (AmpliPharm Pharmaceuticals, LLC, priority 2017, dated 2019).

Details: skin contact

Cn1nnc2c(C(N)=O)ncn2c1=O [temozolomide, 3,4-dihydro-3-methyl-4-oxoimidazo [5,1-d]-as-tetrazine-8-carboxamide]
classification for skin corrosion/irritation and eye irritation: category 2
